What was measured:
hIL-6 mRNA = experiment: Quantification of hIL-6 mRNA in LPS-stimulated U937 macrophages (real-time PCR); assay type: cell-based, human; set-up: key: Active: an active compound is one that causes a ≧20% inhibition in IL-6 mRNA at a concentration less than or equal to 10 μM; details: U937 cells differentiated with PMA, 1 h pretreatment, LPS 1 μg/mL, 3 h; IL-6 mRNA normalised to hCyclophilin; compound ≤10 μM
Method: In this example, hIL-6 mRNA in tissue culture cells was quantitated to measure the transcriptional inhibition of hIL-6 when treated with a compound of the invention.
A human leukemic monocytic lymphoma cell line (U937) was plated (3.2×10^5 cells per well) in a 96-well plate in 100 μL RPMI 1640+10% FBS, and differentiated into macrophages with PMA (60 ng/mL) for 3 days prior to the addition of the compound of interest. The cells were pretreated for 1 h with the test compound in DMSO prior to stimulation with lipopolysaccharide from Escherichia coli at 1 μg/mL. The cells were incubated for 3 h before harvest. At the time of harvest, cells were rinsed in 200 μL PBS. Cell lysis solution (70 μL) was added the cells for 10 min, and mRNA was then prepared using the “mRNA Catcher PLUS plate” (Invitrogen), according to the protocol supplied.
(§1) The eluted mRNA isolated was then used in a one-step quantitative real-time PCR reaction, using components of the UltraSense kit together with Applied Biosystems primer-probe mixes. 10 μL of template was amplified with 1.75 μL of IL-6 primer-probe, and 1 μL of hCyclophilin primer probe, and the reaction was carried out in multiplex. Real-time PCR data was analyzed, normalizing the Ct values for hIL-6 to hCyclophilin, prior to determining the fold induction of each unknown sample, relative to the control.

hVCAM-1 mRNA = experiment: Quantification of hVCAM-1 mRNA in TNF-α-stimulated HUV-EC-C cells (real-time PCR); assay type: cell-based, human; set-up: key: Active: an active compound is one that causes a ≧20% inhibition in VCAM-1 mRNA at a concentration less than or equal to 10 μM; details: 1 h pretreatment, TNF-α 10 ng/mL, 24 h, VCAM-1 mRNA normalised to hCyclophilin, compound ≤10 μM
Method: In this example, hVCAM-1 mRNA in tissue culture cells was quantitated to measure the transcriptional inhibition of hVCAM when treated with a compound of the invention.
A human umbilical vein endothelial cell line (HUV-EC-C) was plated in a 96-well plate (5.0×10^3 cells/well) in 100 μL EGM complete media and incubated for 24 h prior to the addition of the compound of interest. The cells were pretreated for 1 h with the test compound in DMSO prior to stimulation with tumor necrosis factor-α (10 ng/mL). The cells were incubated for an additional 24 h before harvest. At time of harvest, the cells were rinsed in 200 μL PBS, and cell lysis solution (70 μL) was then added the cells for 10 min. mRNA was then prepared using the “mRNA Catcher PLUS plate” (Invitrogen), according to the protocol supplied.
as §1, with “mRNA” for “mRNA isolated”, “hVCAM-1” for “IL-6”, “hVCAM-1” for “hIL-6”

Compound	Inhibition of IL-6 expression (hIL-6 mRNA)	Inhibition of VCAM-1 expression (hVCAM-1 mRNA)
COc1cc(OC)c2c(=O)[nH]c(-c3cc(C)c(OCCNC(C)=O)c(C)c3)nc2n1 [Example 37, N-{2-[4-(5,7-dimethoxy-4-oxo-3,4-dihydro-pyrido[2,3-d]pyrimidin-2-yl)-2,6-dimethyl-phenoxy]-ethyl}-acetamide]	Active	Inactive
COc1cc(OC)c2c(=O)[nH]c(-c3cc(C)c(CNC(C)=O)c(C)c3)nc2c1 [Example 38, N-(4-(5,7-dimethoxy-4-oxo-3,4-dihydroquinazolin-2-yl)-2,6-dimethylbenzyl)acetamide]	Active	Active
COc1cc(OC)c2c(=O)[nH]c(-c3cc(C)c(CNC(C)=O)c(C)c3)nc2n1 [Example 39, N-[4-(5,7-dimethoxy-4-oxo-3,4-dihydro-pyrido[2,3-d]pyrimidin-2-yl)-2,6-dimethyl-benzyl]-acetamide]	Active	Active
COc1cc(OC)c2c(=O)[nH]c(-c3cc(C)c(OCCNCC(F)(F)F)c(C)c3)nc2c1 [Example 40, 2-{3,5-dimethyl-4-[2-(2,2,2-trifluoro-ethylamino)-ethoxy]-phenyl}-5,7-dimethoxy-3H-quinazolin-4-one]	Active	Active
CNCCOc1c(C)cc(-c2nc3cc(OC)cc(OC)c3c(=O)[nH]2)cc1C [Example 42, 2-(3,5-dimethyl-4-(2-(methylamino)ethoxy)phenyl)-5,7-dimethoxyquinazolin-4(3H)-one]	Active	Active
COc1cc(OC)c2c(=O)[nH]c(-c3cc(C)c(OCCNC(C)C)c(C)c3)nc2c1 [Example 44, 2-(4-(2-(isopropylamino)ethoxy)-3,5-dimethylphenyl)-5,7-dimethoxyquinazolin-4(3H)-one]	Active	Active
COc1cc(OC)c2c(=O)[nH]c(-c3cc(C)c(OCCN(C)C(C)=O)c(C)c3)nc2c1 [Example 47, N-(2-(4-(5,7-dimethoxy-4-oxo-3,4-dihydroquinazolin-2-yl)-2,6-dimethylphenoxy)ethyl)-N-methylacetamide]	Active	Active
COc1cc(OC)c2c(=O)[nH]c(-c3cc(C)c(OCCNC#N)c(C)c3)nc2c1 [Example 51, N-(2-(4-(5,7-dimethoxy-4-oxo-3,4-dihydroquinazolin-2-yl)-2,6-dimethylphenoxy)ethyl)cyanamide]	Active	Active
COc1cc(OC)c2c(=O)[nH]c(-c3ccc4cc(CCO)[nH]c4c3)nc2c1 [Example 58, 2-[2-(2-hydroxyethyl)-1H-indol-6-yl]-5,7-dimethoxy-3H-quinazolin-4-one]	Active	Active

From US9757368B2, “Anti-inflammatory agents” (Resverlogix Corp., priority 2009, dated 2017)
